Assays:
HIO-118V cells [1] = experiment: Apoptosis by TUNEL method, HIO-118V cells; type: cell-based, human; conditions: 45 uM progesterone, 1 uM Vitamin D
Description: In experiments to further understand the effect of progestin and vitamin D on cell viability, experiments were conducted to determine how progestin, vitamin D, and the combination act to induce apoptosis. In the experiment cells were incubated for 28 and 48 hours in the hormonal treatments as indicated and assessed for TUNEL reactivity. In these experiments, Apoptosis (TUNEL) data shown in conditions in which inhibitory effects via MTS were shown. In the example shown in FIG. 4, OVCAR 3 cells undergo a 7-fold increase in apoptosis at 48 hrs when treated with a combination of progesterone and vitamin D. HIO-118V cells show a 1.7-fold increase in apoptosis with 45 uM progesterone alone and a 1.9-fold increase with the combination of 1 uM Vitamin D and 45 uM progesterone.

HIO-118V cells [2] = experiment: MTS cell viability assay, immortalized human ovarian epithelial cells (HIO-118V); type: cell-based
Description: (§1) Progesterone and Vitamin D (1,25(OH)2 D3) were tested to determine their effect on cell lines derived from the human ovarian surface epithelium. […] This is shown in FIGS. 1-3 in both ovarian cancer cell lines (OVCAR 5 and OVCAR 3) as well as an immortalized cell cultures derived from the normal human ovarian epithelium (HIO-118V). There is a marked impact on cell viability when the two agents are combined and administered at a dosage that has a marginal impact for each agent given alone.

OVCAR 3 cells = experiment: MTS cell viability assay, OVCAR 3 cells; type: cell-based, human
Description: as §1

OVCAR 5 cells = experiment: MTS cell viability assay, OVCAR 5 cells; type: cell-based, human
Description: as §1

[3] = tested on: Vitamin D 24 hydroxylase (24-OH); experiment: Western blot of 24 hydroxylase expression in OVCAR 3 cells; type: cell-based, human; conditions: 18 hours, 100 nM Vitamin D, 25 μM progesterone, 25 μM Genistein
Text: Protein was then extracted from the cells and 24-OH expression was the measured via Western Blot, and the degree of expression (band density) measured via a densitometer.

[4] = cited from earlier work
[5] = 0.5 micrograms per day or 5 micrograms per week; cited from earlier work
24 hydroxylase (24-OH) = biological target: T1, 24 hydroxylase (24-OH) (Homo sapiens, UniProt Q07973); conditions: shown by others; cited from earlier work
T1 sequence (Q07973 36-514): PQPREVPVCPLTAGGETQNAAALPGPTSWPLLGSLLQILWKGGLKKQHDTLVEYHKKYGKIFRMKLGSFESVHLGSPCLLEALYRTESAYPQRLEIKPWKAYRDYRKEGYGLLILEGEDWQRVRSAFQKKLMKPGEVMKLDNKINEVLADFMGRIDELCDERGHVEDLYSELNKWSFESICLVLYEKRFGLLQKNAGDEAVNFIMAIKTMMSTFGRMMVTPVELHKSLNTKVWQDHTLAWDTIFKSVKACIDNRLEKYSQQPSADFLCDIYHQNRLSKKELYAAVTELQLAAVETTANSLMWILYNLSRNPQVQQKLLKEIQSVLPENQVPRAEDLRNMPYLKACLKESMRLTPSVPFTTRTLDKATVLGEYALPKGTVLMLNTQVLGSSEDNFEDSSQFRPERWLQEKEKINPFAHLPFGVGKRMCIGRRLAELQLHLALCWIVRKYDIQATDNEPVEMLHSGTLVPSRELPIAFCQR

Molecule | cell viability (MTS assay) (HIO-118V cells [2]) | cell viability (MTS assay) (OVCAR 3 cells) | cell viability (MTS assay) (OVCAR 5 cells) | 24-OH expression (Western blot, band density) [3] | half life after oral administration [4] | other results
CC(=O)[C@H]1CC[C@H]2[C@@H]3CCC4=CC(=O)CC[C@]4(C)[C@H]3CC[C@]12C [Progesterone, progesterone] | inhibit cell viability in a dose response fashion | inhibit cell viability in a dose response fashion | inhibit cell viability in a dose response fashion | causes both degradation and decreases production of 24 hydroxylase | – | increase in apoptosis (TUNEL) (HIO-118V cells [1]): 1.7 fold
C=C1/C(=C\C=C2/CCC[C@]3(C)[C@@H]([C@H](C)CCCC(C)(C)O)CC[C@@H]23)C[C@@H](O)C[C@@H]1O [Vitamin D (1,25(OH)2 D3), 1,25-dihydroxyvitamin D3] | inhibit cell viability in a dose response fashion | inhibit cell viability in a dose response fashion | inhibit cell viability in a dose response fashion | – | 5 to 8 h | serum half-life ([4]; serum): 6 to 8 h; individuals developing hypercalcemia [5]: 1-3%
C=C1CC[C@H](O)C/C1=C/C=C1\CCC[C@]2(C)[C@@H]([C@H](C)CCCC(C)(C)O)CC[C@@H]12 [25(OH) D3, 25-hydroxyvitamin D3] | – | – | – | – | approximately 2 weeks | –
O=c1c(-c2ccc(O)cc2)coc2cc(O)cc(O)c12 [Genistein, genistein] | – | – | – | – | – | inhibition of 24-OH (24 hydroxylase (24-OH)): inhibit 24-OH
1,25-dihydroxyvitamin D3 [Vitamin D (1,25(OH)2 D3)] | – | – | – | markedly induced | – | –
